Legend:
[1] = Particle size by laser light diffraction (Sympatec Dry Dispersion Size Analyzer); assay type: physicochemical; parameters: d[v,10] / d[v,50] / d[v,90]: unit not given here; conditions: for Span: Span=[d(v,0.9)-d(v,0.1)]/d(v,0.5); for d[v,10] / d[v,50] / d[v,90]: average of triplicate
Method: The particle size was determined by Laser light diffraction using the Sympatec Dry Dispersion Size Analyzer (Clausthal-Zellerfeld, Germany).
The powder was dispersed for two measurement conditions at an air pressure of 1 and 4 bar.
The average d[v,10], d[v,50], d[v,90] values were calculated from triplicate measurements. The span was calculated using the following equation: Span=[d(v,0.9)−d(v,0.1)]/d(v,0.5)

[2] = Physical stability (particle size growth) upon storage; assay type: physicochemical; conditions: at least three months, ambient conditions (22±2° C. and 60% relative humidity)
Excerpt: The physical stability shall be measured by using a Sympatec Dry Dispersion Size Analyzer, while the chemical stability shall be determined according to known method such as HPLC.

C[N+]1(C)CCC(OC(=O)C(O)(c2ccccc2)C2CCCC2)C1.[Br-] (racemic) [Example 1, (3S,2′R), (3R,2′S)-3-[(Cyclopentylhydroxyphenylacetyl)oxy]-1,1-dimethylpyrrolidinium bromide racemic mixture]
Span ([1]; dispersion pressure 1.0 bar): 1.50
d[v,10] ([1]; dispersion pressure 1.0 bar): 0.81
d[v,50] ([1]; dispersion pressure 1.0 bar): 4.17
d[v,90] ([1]; dispersion pressure 1.0 bar): 7.05
Span ([1]; dispersion pressure 4.0 bar): 2.19
d[v,10] ([1]; dispersion pressure 4.0 bar): 0.43
d[v,50] ([1]; dispersion pressure 4.0 bar): 2.29
d[v,90] ([1]; dispersion pressure 4.0 bar): 5.45
growth of the particle size upon storage [2]: No significant growth of the particle size

Reference: patent US9925168B2, “Preparation of micronized particles of an antimuscarinic compound by hydrodynamic cavitation” (CHIESI FARMACEUTICI S.P.A., priority 2016, dated 2018)
